Series [1] concerns the target thrombospondin binding to heparin. Kind of series: Inhibition of 125I-thrombospondin binding to immobilized heparin-BSA. The arrangement: species or system human. In a few lines:
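Solid-phase binding: heparin-BSA (0.2 μg/well) adsorbed 2 h at 37° in Dulbecco's PBS, blocked with tris-BSA. Peptides in 50 mM tris pH 7.8, NaCl, 1 mM CaCl2, 0.025% NaN3, 1% BSA mixed with 125I-thrombospondin (added at 0.2 μg/ml), 3 h at 4°; after saline washes, bound radioactivity counted.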

For series [2], the target named is basic fibroblast growth factor (FGF-2) binding to heparin. Kind of series: Inhibition of 125I-bFGF binding to heparin-BSA conjugate. The settings on record: retro-inverso peptides; read-out: IC50 for Inhibition of Binding. An outline of the steps:
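Heparin-BSA conjugate immobilized in wells; 125I-bFGF added with test peptides and incubated 2 h at 25° C. Bound radioactivity counted after washing and cutting out wells; inhibition of binding derived from counts.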

Series [3] concerns bovine endothelial cells. The series can be described thus: Inhibition of bovine endothelial cell proliferation (Table 7). Type of series: cell-based. The conditions noted are these: free peptide; read-out: IC50 Inhibitory Activity, Free Peptide. As for the experimental part: Similar structure-function and epitope mapping studies were carried out with regard to inhibition of bovine endothelial cell proliferation. […] This may be due either to a lower tendency of the conjugates to stick to the microtiter wells or a greater tendency to disrupt binding of the cells to the substratum in the wells.
(§1) Endothelial cell proliferation was measured using the CELL TITER 96™ assay (Promega, Madison, Wis.). 5×10^3 cells were plated into each well of a 96-well culture plate in 0.5 or 5% FCS-containing medium together with the indicated concentrations of growth effectors. After 72 h, 15 μl of dye solution was added to each well, and the plates were incubated for an additional 4 h. Solubilization solution was added, and absorbance at 570 nm was determined after 24 h as described by the manufacturer.

For series [4], the system named is MDA MB435 breast carcinoma cells. Kind of series: MDA MB435 human breast carcinoma cell proliferation. The settings on record: free peptide. Type of series: cell-based. As for the experimental part: Human breast carcinoma cells MDA MB435 (American Type Culture Collection) were grown in RPMI 1640 medium containing 10% fetal calf serum. Proliferation was determined as described in FIG. 18 and 44A, B and C.
Human breast carcinoma cells MDA MB435 (American Type Culture Collection) were grown in RPMI 1640 medium containing 10% fetal calf serum. Proliferation was determined in the presence of 0.5% fetal calf serum and bFGF as described in FIG. 19.

Series [5] concerns MDA MB435 tumor. The series can be described thus: MDA MB435 orthotopic tumor growth in nude mice. Type of series: in vivo, mouse. The conditions noted are these: polysucrose/FICOLL conjugate, intravenous. The method, then: Tumor cells were allowed to implant for approximately one to three weeks prior to administering the peptide analog or a polysucrose conjugate. […] The inhibitory effect persisted beyond the treatment period, although the growth of the tumors eventually resumed.
The presented experiment consisted of two groups of animals. The objective was to test a peptide conjugate for effects on breast carcinoma growth. The treated animals were injected with MDA435 cells alone on day one and then injected intravenously with drugs from day 10 through approximately day 30. Tumor growth and frequency of metastasis were determined in both groups.
NIH Nu/Nu mice, approximately eight weeks of age are injected with 10^5 MDA MB435 cells by the mammary fat pad route. Mice were anesthetized with 150-200 μl i.p. of a 1:80 dilution in PBS of a solution containing 25 g. tribromoethanol in 12.5 ml tertiary amyl alcohol. The mammary fat pad was cleaned with ethanol and a 10 mm incision was made directly above the site of injection. Mammary fat pad #4 could be observed beneath the skin after the incision was made. Using a 0.1 ml Hamilton syringe and 27 gauge 1/2" needle, 10 μl of cell suspension, 1×10^5 cells in HBSS, are injected into the fat pad. The incision is closed using 1-2 Autoclips ([…], Clay Adams). Autoclips are removed 7 days post-injection and scarring is minimal.
Six animals were injected for each condition, per experiment. Animals were earpunched after injection for subsequent identification. Beginning at day 10 and continuing every day until approximately day 30, the experimental animals were injected i.v. (tail vein) with 0.1 ml of the FICOLL conjugate. Primary tumor size was determined twice weekly by length×width×height measurement, and the animals are observed daily for general health. When the primary tumor of any animal exceeded 20 mm in any dimension, all of the animals were sacrificed. The presence of metastases was determined by gross autopsy and examination of H & E stained sections of any suspicious organ and step sections of the lungs and draining lymph nodes. The primary tumors were removed, stripped free of other tissues, and weighed. At any time during the experiment, animals suspected of being in distress were sacrificed and examined as above.

For series [6], the system named is AIDS-KS lesion. The series can be described thus: Kaposi's sarcoma angiogenic lesion formation in nude mice. Type of series: in vivo. The settings on record: intravenous, nude mouse. As for the experimental part:
For determination of In vivo Angiogenesis, 2×10^6 AIDS-KS cells suspended in phosphate buffered saline without calcium and magnesium (PBS w/o), passage 6-8, were transplanted subcutaneously on day 0 of the flanks of male Balb/c nu/nu athymic mice. The animals were injected intravenously with increasing dilutions of TSP peptide-FICOLL conjugates or the equivalent concentrations of FICOLL mixed in PBS w/o as a control from days 1-5. On day 6 the angiogenic lesions were observed, measured, fixed in 10% formalin, and stained with hematoxylin-eosin.

The subject of series [7] is A2058 melanoma cells. Kind of series: 125I-laminin binding to A2058 melanoma cells. Type of series: cell-based, human. The conditions noted are these: excess heparin. The method, then:
(§2) Melanoma cells (1×10^5 in 0.2 ml) were incubated with 0.2 μg/ml labeled laminin alone or in the presence of 200 micrograms per ml of peptides from SEQ ID NO:1, SEQ ID NO:2, or SEQ ID NO:3, type-I repeats from thrombospondin (FIG. 5A). Melanoma cells were also incubated with labelled laminin or thrombospondin alone or in the presence of 10 μg/ml of peptides from the first (184, SEQ ID NO:1), second (185, SEQ ID NO:2 and 246, SEQ ID NO:19), or third type I repeat of thrombospondin (186, SEQ ID NO:3) or 1 μg/ml heparin (FIG. 5B). The cells were centrifuged through oil to separate the free laminin from the bound laminin followed by quantifying the radioactivity in the cell pellet by a gamma counter. The results are presented in FIGS. 5A and B, as a percent of control binding determined in the absence of peptide and is the mean of triplicate determinations±the standard deviation.
(§3) Melanoma cells (3×10^5 cells in 0.2 ml) were incubated with 0.2 μg/ml of labelled I^125 -thrombospondin alone or in the presence of increasing concentrations of heparin or a peptide having the sequence according to SEQ ID NO:1 or a combination of the two inhibitors. […]
(§4) A2058 melanoma cells were harvested as described above and suspended in Dulbecco's PBS containing 1 mg/ml BSA. […] The supernatant fluid was aspirated, and the bottom of the tube was cut and counted.

Series [8] has as its system A2058 melanoma cells. Kind of series: 125I-thrombospondin binding to A2058 melanoma cells. Type of series: cell-based, human. The settings on record: heparin. The method, then: as §2, §3, §4
Series [9] can be described thus: Solubility. Type of series: physicochemical.
For series [10], the system named is bovine corneal endothelial cells. Type of series: cell-based. The method, then: Corneal bovine endothelial cells (BCE cells) were used at passages 2 through 8 (Munjal et al., 1990). BCE cell cultures were maintained in DMEM (low glucose), containing 10% FCS, 4 mM glutamine, 2.5 μg/ml amphotericin B, and 500 U/ml each of penicillin G potassium and streptomycin sulfate (all media components were from Biofluids Inc., Rockville, Md.). BCE cells were grown at 34° in 5% CO2. The media were changed every 2-3 days.
as §1

Data on 5 compounds can be found in US5770563A, “Heparin- and sulfatide binding peptides from the type I repeats of human thrombospondin and conjugates thereof” (The United States of America as represented by the …, priority 1995, dated 1998).

Square brackets hold non-standard residues; d marks the D form. Ends that are not written are not given here. Peptide text beside a SMILES is read from it. Mpa = O=C(O)CCS A value given as a limit tells only on which side of the number the result lay.

On to `C[C@@H](NC(=O)CCS)C(=O)N[C@H](C)C(=O)N[C@H](Cc1c[nH]c2ccccc12)C(=O)N[C@H](Cc1c[nH]cn1)C(=O)N[C@H](CO)C(=O)N[C@H](Cc1c[nH]c2ccccc12)C(=O)NCC(=O)NCC(=O)N[C@H](C)C(=O)N[C@H](CCC(N)=O)C(=O)N[C@H](CCCCN)C(=O)N[C@H](C)C(=O)N[C@H](CCCNC(=N)N)C(=O)N[C@H](CCCCN)C(N)=O` [Peptide 483, ri-amKRAKQAGGWSHWAAtp] ([Mpa][dA][dA][dW][dH][dS][dW]GG[dA][dQ][dK][dA][dR][dK]-NH2), for which the IC50 was 0.13 µM in [1] (retro-inverso peptides, free, read-out: IC50 Inhibitory Activity, Free Peptide); greater than 20 µM in series [2]; 4 µM in series [3]. Moreover, the “inhibition of MDA MB435 proliferation, in words” value in series [4] is reported as “active”.

On to “364f: KRFKQDGGWSHWSPWSSC conjugated to FICOLL, several preparations (also: conjugated to FICOLL) [Peptide 364f]”, for which the tumor growth entry in [5] is “delays tumor growth”. In addition, the AIDS-KS lesion formation entry in series [6] is on record as “strongly inhibited AIDS-KS lesion formation”.

Take heparin [reference compound]: in [7], the “laminin binding resistant to inhibition” value is “approximately 50%”. The “inhibition of thrombospondin binding to A2058 melanoma cells by heparin” value in [8] was “approximately 90%”.

Turning to `CC(=O)N[C@@H](CCCCN)C(=O)N[C@@H](CCCNC(=N)N)C(=O)N[C@@H](C)C(=O)N[C@@H](CCCCN)C(=O)N[C@@H](C)C(=O)N[C@@H](C)C(=O)NCC(=O)NCC(=O)N[C@@H](Cc1c[nH]c2ccccc12)C(=O)N[C@@H](CO)C(=O)N[C@@H](Cc1c[nH]cn1)C(=O)N[C@@H](Cc1c[nH]c2ccccc12)C(=O)N[C@@H](C)C(=O)N[C@@H](CO)C(=O)N[C@@H](CS)C(N)=O` [acKRAKAAGGWSHWASCam] (Ac-KRAKAAGGWSHWASC-NH2), the “inhibition of thrombospondin binding to heparin, in words” value in [1] (free peptide) is “good activity”. Besides, the solubility characteristics entry in series [9] is “good activity and solubility characteristics”.

Consider `N=C(N)NCCC[C@H](NC(=O)[C@@H](N)CCCCN)C(=O)N[C@@H](Cc1ccccc1)C(=O)N[C@@H](CCCCN)C(=O)N[C@@H](CCC(N)=O)C(=O)N[C@@H](CC(=O)O)C(=O)NCC(=O)NCC(=O)N[C@@H](Cc1c[nH]c2ccccc12)C(=O)N[C@@H](CO)C(=O)N[C@@H](Cc1c[nH]cn1)C(=O)N[C@@H](Cc1c[nH]c2ccccc12)C(=O)N[C@@H](CO)C(=O)N1CCC[C@H]1C(=O)N[C@@H](Cc1c[nH]c2ccccc12)C(=O)N[C@@H](CO)C(=O)N[C@@H](CO)C(=O)O` [Peptide 246, KRFKQDGGWSHWSPWSS] (H-KRFKQDGGWSHWSPWSS-OH), for which 40 µM corresponded to half-maximal inhibition in series [10] (IC50).
